Measurements published in US9132179B2, “Compositions for reducing bacterial carriage and CNS invasion and methods of using same” (The UAB Research Foundation, priority 2003, dated 2015).
pIC50: −log10 of the molar value.

How the values were obtained:
TIGR4 strain = assay: Attachment of TIGR4 strain to ganglioside-coated ELISA plates, short-term incubation; format: binding, S. pneumoniae
Protocol: The ability of the TIGR4, and its nanA and nanB mutants to bind to specific gangliosides is measured. The gangliosides used include mixed gangliosides, asialo-GM1, GM1, GD1a, GD1b, GT1 (Calbiochem) and the GM3 ganglioside (Sigma). The GM3 ganglioside lacks the terminal or internal GalNAcβ1-4Gal sequence involved in pneumococcal binding and is used as a negative control. These mixed, mono-, di- or tri-sialic acid containing gangliosides bind readily to ELISA plates. […] Using ganglioside-coated plates, the ability to attach to these plates by wildtype TIGR4 strain, the stable opaque and transparent phase variants of the TIGR4 strain, the nanA, nanB, and nanA/nanB mutant strains is compared. These analyses include short-term incubation (1 hr) and extended incubations (24 hrs) on ganglioside-coated plates. Attached pneumococci are removed from the ganglioside plates by short incubation (10-15 min.) in Todd Hewitt medium containing 0.5% yeast extract followed by repeated pipetting and plating the released bacteria on blood agar plates. Alternatively 41° C. Todd Hewitt broth agar containing 0.5% yeast extract is poured on top of the attached pneumococci and the colonies are counted through the bottom of the plate. Controls include plates with no pneumococci and plates with no gangliosides but with pneumococci.

[1] = system: S. pneumoniae strain EF3030; assay: GLS preincubation of S. pneumoniae strain EF3030 before nasal application; CFU in tissues; format: in vivo; settings: EF3030 preincubated with GLS, xid mice, four days after nasal application
Protocol: Aliquots (3×10^7 CFUs) of S. pneumoniae were incubated for 30 minutes with 20 μg asialo-GM1 (a-GM1) or 125 μg of mixed GLSs (MG) prior to nasal application. The ON/E, OBs, brain and NW, NALT and lungs were collected four days later and analyzed for numbers of S. pneumoniae. The 0 value on the Y-axis represents the absence of detectable CFUs. Indicated are the mean+one SE of 5 mice and the P-values were obtained following statistical analysis. The data are representative of two separate experiments.
The blood was collected into a heparinized capillary tube from the retroorbital plexus. Mice were disinfected with 70% ethanol prior to collection of nasal wash (NW), kidney, spleen, and lungs. […]
Eight serial, three-fold dilutions were made of tissues and body fluids in sterile Ringer's solution and plated on blood agar plates containing 4 μg/ml of gentamicin sulfate. […] The results were expressed as CFUs/organ, per NW or per ml of blood.
To block GLS binding sites, 3×10^7 CFU of S. pneumoniae strain EF3030 were incubated for 30 min on ice with either 20 μg asialo-GM1 from human brain or 125 μg of mixed GLSs (18% GM1, 55% GD1a, 15% GD1b, 10% GT1b, 2% other GLSs) from bovine brain (Calbiochem-Novabiochem Corporation, Inc., La Jolla, Calif.). […] Tissues were analyzed for CFUs four days later.

[2] = GM1-binding peptide; cited from earlier work

Substance	binding of pneumococci to coated plates (TIGR4 strain)	reduction of colonization in CNS ([1]; CNS tissue) [fold]	reduction of colonization in lungs ([1]; lungs) [fold]	pIC50 [2]
asialo-GM1	bind and attachment	25	63	
GM3 [GM-3]	not			
GM1	not			
VWRLLAPPFSNRLLP				6.00
